From patent US20230278983A1, “INDOLE DERIVATIVES AND USES THEREOF FOR TREATING A CANCER” (Universite Claude Bernard Lyon 1, priority 2020, published 2023)

target: CK2 (Homo sapiens (Human), UniProt P68400); test: Radiometric CK2 kinase assay; format: biochemical; conditions: not given
Sequence (P68400 whole entry): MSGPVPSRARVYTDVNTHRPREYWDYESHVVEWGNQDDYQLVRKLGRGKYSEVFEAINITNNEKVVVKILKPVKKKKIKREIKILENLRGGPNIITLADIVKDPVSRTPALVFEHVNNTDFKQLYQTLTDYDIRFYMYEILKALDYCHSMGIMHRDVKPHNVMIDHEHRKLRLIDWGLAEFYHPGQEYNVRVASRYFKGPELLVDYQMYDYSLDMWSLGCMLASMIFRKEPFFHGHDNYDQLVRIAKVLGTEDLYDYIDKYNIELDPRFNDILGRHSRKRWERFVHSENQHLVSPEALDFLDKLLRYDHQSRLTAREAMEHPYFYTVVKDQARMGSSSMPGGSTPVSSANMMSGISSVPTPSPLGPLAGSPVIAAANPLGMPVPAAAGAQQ

Question: How did the IC50 turn out when `O=S(=O)(NCCN1CCC(Cn2cc(-c3c[nH]c4ccccc34)nn2)CC1)c1ccccc1` [AB150, N-(2-(4-((4-(1H-Indol-3-yl)-1H-1,2,3-triazol-1-yl)methyl)piperidin-1-yl)ethyl)benzenesulfonamide] was run?
Answer: The IC50 was 48.5 µM.

Question: With `O=S(=O)(NCCN1CCC(Cn2cc(-c3c[nH]c4ccccc34)nn2)CC1)c1ccc(Cl)cc1` [AB152, N-(2-(4-((4-(1H-Indol-3-yl)-1H-1,2,3-triazol-1-yl)methyl)piperidin-1-yl)ethyl)-4-chlorobenzenesulfonamide] as the molecule, how does the IC50 read?
Answer: The IC50 was 35 µM.

Question: With `O=S(=O)(NCCN1CCC(Cn2cc(-c3c[nH]c4ccc(F)cc34)nn2)CC1)c1ccc(Cl)cc1` [AB153, 4-Chloro-N-(2-(4-((4-(5-fluoro-1H-indol-3-yl)-1H-1,2,3-triazol-1-yl)methyl)piperidin-1-yl)ethyl)benzenesulfonamide] as the molecule, how does the IC50 read?
Answer: The IC50 was 15.1 µM.

Question: Which IC50 does the source give for `CCOC(=O)c1[nH]c2ccc(F)cc2c1-c1cn(CC2CCN(CCNS(=O)(=O)c3ccc(Cl)cc3)CC2)nn1` [AB401, Ethyl 3-(1-((1-(2-((4-chlorophenyl)sulfonamido)ethyl)piperidin-4-yl)methyl)-1H-1,2,3-triazol-4-yl)-5-fluoro-1H-indole-2-carboxylate] here?
Answer: Its IC50 is 0.98 µM.

Question: Which IC50 does the source give for `CCOC(=O)c1[nH]c2cc(Cl)ccc2c1-c1cn(CC2CCN(CCNS(=O)(=O)c3ccc(Cl)cc3)CC2)nn1` [AB433, Ethyl 6-chloro-3-(1-((1-(2-((4-chlorophenyl)sulfonamido)ethyl)piperidin-4-yl)methyl)-1H-1,2,3-triazol-4-yl)-1H-indole-2-carboxylate] here?
Answer: The IC50 was 8.1 µM.

Question: How did the IC50 turn out when `CCOC(=O)c1[nH]c2ccc(Cl)cc2c1-c1cn(CC2CCN(CCNS(=O)(=O)c3ccc(Cl)cc3)CC2)nn1` [AB460, Ethyl 5-chloro-3-(1-((1-(2-((4-chlorophenyl)sulfonamido)ethyl)piperidin-4-yl)methyl)-1H-1,2,3-triazol-4-yl)-1H-indole-2-carboxylate] was run?
Answer: Its IC50 is 2.51 µM.

Question: Which IC50 does the source give for `CC(C)COC(=O)c1[nH]c2ccc(F)cc2c1-c1cn(CC2CCN(CCNS(=O)(=O)c3ccc(Cl)cc3)CC2)nn1` [AB498, Isobutyl 3-(1-((1-(2-((4-chlorophenyl)sulfonamido)ethyl)piperidin-4-yl)methyl)-1H-1,2,3-triazol-4-yl)-5-fluoro-1H-indole-2-carboxylate] here?
Answer: Its IC50 is 0.83 µM.

Question: How did the IC50 turn out when `CC(C)COC(=O)c1[nH]c2ccc(Cl)cc2c1-c1cn(CC2CCN(CCNS(=O)(=O)c3ccc(Cl)cc3)CC2)nn1` [AB499, Isobutyl 5-chloro-3-(1-((1-(2-((4-chlorophenyl)sulfonamido)ethyl)piperidin-4-yl)methyl)-1H-1,2,3-triazol-4-yl)-1H-indole-2-carboxylate] was run?
Answer: Its IC50 is 0.67 µM.

Question: With `CCOC(=O)c1[nH]c2cc(Cl)ccc2c1-c1cn(CC2CCN(CCNS(=O)(=O)c3ccc(C)cc3)CC2)nn1` [AB503, Ethyl 6-chloro-3-(1-((1-(2-((4-methylphenyl)sulfonamido)ethyl)piperidin-4-yl)methyl)-1H-1,2,3-triazol-4-yl)-1H-indole-2-carboxylate] as the molecule, how does the IC50 read?
Answer: The IC50 was 9.85 µM.

Question: `CCOC(=O)c1[nH]c2ccc(F)cc2c1-c1cn(CC2CCN(CCNS(=O)(=O)c3ccc(C)cc3)CC2)nn1` [AB504, Ethyl 5-fluoro-3-(1-((1-(2-((4-methylphenyl)sulfonamido)ethyl)piperidin-4-yl)methyl)-1H-1,2,3-triazol-4-yl)-1H-indole-2-carboxylate] was tested. Which IC50 did it give?
Answer: The IC50 was 1.8 µM.

Question: `CCOC(=O)c1[nH]c2ccc(Cl)cc2c1-c1cn(CC2CCN(CCNS(=O)(=O)c3ccc(C)cc3)CC2)nn1` [AB505, Ethyl 5-chloro-3-(1-((1-(2-((4-methylphenyl)sulfonamido)ethyl)piperidin-4-yl)methyl)-1H-1,2,3-triazol-4-yl)-1H-indole-2-carboxylate] was tested. Which IC50 did it give?
Answer: The IC50 was 3.76 µM.

Question: How did the IC50 turn out when `CCOC(=O)c1[nH]c2ccc(F)cc2c1-c1cn(CC2CCN(CCNS(=O)(=O)c3ccc(C(F)(F)F)cc3)CC2)nn1` [AB529, Ethyl 5-fluoro-3-(1-((1-(2-((4-(trifluoromethyl)phenyl)sulfonamido)ethyl)piperidin-4-yl)methyl)-1H-1,2,3-triazol-4-yl)-1H-indole-2-carboxylate] was run?
Answer: The IC50 was 0.7 µM.

Question: How did the IC50 turn out when `CCOC(=O)c1[nH]c2ccc(F)cc2c1-c1cn(CC2CCN(CCNS(=O)(=O)c3ccc4ccccc4c3)CC2)nn1` [AB536, Ethyl 5-fluoro-3-(1-((1-(2-(naphthalene-2-sulfonamido)ethyl)piperidin-4-yl)methyl)-1H-1,2,3-triazol-4-yl)-1H-indole-2-carboxylate] was run?
Answer: The IC50 was 0.8 µM.

Question: Which IC50 does the source give for `CCOC(=O)c1[nH]c2ccc(Cl)cc2c1-c1cn(CC2CCN(CCNS(=O)(=O)c3ccc(CC)cc3)CC2)nn1` [AB543, Ethyl 5-chloro-3-(1-((1-(2-((4-ethylphenyl)sulfonamido)ethyl)piperidin-4-yl)methyl)-1H-1,2,3-triazol-4-yl)-1H-indole-2-carboxylate] here?
Answer: The IC50 was 0.93 µM.

Question: Which IC50 does the source give for `CCOC(=O)c1[nH]c2ccc(Cl)cc2c1-c1cn(CC2CCN(CCNS(=O)(=O)c3ccc(C(F)(F)F)cc3)CC2)nn1` [AB550, Ethyl 5-chloro-3-(1-((1-(2-((4-(trifluoromethyl)phenyl)sulfonamido)ethyl)piperidin-4-yl)methyl)-1H-1,2,3-triazol-4-yl)-1H-indole-2-carboxylate] here?
Answer: Its IC50 is 2.24 µM.

Question: `CCOC(=O)c1[nH]c2ccc(Cl)cc2c1-c1cn(CC2CCN(CCNS(=O)(=O)c3ccc4ccccc4c3)CC2)nn1` [AB551, Ethyl 5-chloro-3-(1-((1-(2-(naphthalene-2-sulfonamido)ethyl)piperidin-4-yl)methyl)-111-1,2,3-triazol-4-yl)-1H-indole-2-carboxylate] was tested. Which IC50 did it give?
Answer: Its IC50 is 1.78 µM.

Question: With `CCc1ccc(S(=O)(=O)NCCN2CCC(Cn3cc(-c4c(C(=O)OCC(C)C)[nH]c5ccc(F)cc45)nn3)CC2)cc1` [AB556, Isobutyl 3-(1-((1-(2-((4-ethylphenyl)sulfonamido)ethyl)piperidin-4-yl)methyl)-1H-1,2,3-triazol-4-yl)-5-fluoro-1H-indole-2-carboxylate] as the molecule, how does the IC50 read?
Answer: The IC50 was 0.17 µM.

Question: For `CCc1ccc(S(=O)(=O)NCCN2CCC(Cn3cc(-c4c(C(=O)OCC(C)C)[nH]c5ccc(Cl)cc45)nn3)CC2)cc1` [AB557, Isobutyl 5-chloro-3-(1-((1-(2-((4-ethylphenyl)sulfonamido)ethyl)piperidin-4-yl)methyl)-1H-1,2,3-triazol-4-yl)-1H-indole-2-carboxylate], which IC50 is on record?
Answer: Its IC50 is 0.56 µM.

Question: How did the IC50 turn out when `CCc1ccc(S(=O)(=O)NCCN2CCC(Cn3cc(-c4c(C(=O)OC(C)C)[nH]c5ccc(F)cc45)nn3)CC2)cc1` [AB577, Isopropyl 3-(1-((1-(2-((4-ethylphenyl)sulfonamido)ethyl)piperidin-4-yl)methyl)-1H-1,2,3-triazol-4-yl)-5-fluoro-1H-indole-2-carboxylate] was run?
Answer: The IC50 was 2.3 µM.

Question: How did the IC50 turn out when `CCc1ccc(S(=O)(=O)NCCN2CCC(Cn3cc(-c4c(C(=O)OC(C)C)[nH]c5ccc(Cl)cc45)nn3)CC2)cc1` [AB578, Isopropyl 5-chloro-3-(1-((1-(2-((4-ethylphenyl)sulfonamido)ethyl)piperidin-4-yl)methyl)-1H-1,2,3-triazol-4-yl)-1H-indole-2-carboxylate] was run?
Answer: Its IC50 is 9.2 µM.

Question: Which IC50 does the source give for `CCOC(=O)c1[nH]c2ccc(F)cc2c1-c1cn(CC2CCN(CCNS(=O)(=O)c3ccc(C(C)C)cc3)CC2)nn1` [AB579, Ethyl 5-fluoro-3-(1-((1-(2-((4-isopropylphenyl)sulfonamido)ethyl)piperidin-4-yl)methyl)-1H-1,2,3-triazol-4-yl)-1H-indole-2-carboxylate] here?
Answer: Its IC50 is 0.43 µM.

Question: How did the IC50 turn out when `CCOC(=O)c1[nH]c2ccc(Cl)cc2c1-c1cn(CC2CCN(CCNS(=O)(=O)c3ccc(C(C)C)cc3)CC2)nn1` [AB582, Ethyl 5-chloro-3-(1-((1-(2-((4-isopropylphenyl)sulfonamido)ethyl)piperidin-4-yl)methyl)-1H-1,2,3-triazol-4-yl)-1H-indole-2-carboxylate] was run?
Answer: Its IC50 is 1.25 µM.

Question: `CCc1ccc(S(=O)(=O)NCCN2CCC(Cn3cc(-c4c(C(=O)OCCO)[nH]c5ccc(F)cc45)nn3)CC2)cc1` [AB597, 2-Hydroxyethyl 3-(1-((1-(2-((4-ethylphenyl)sulfonamido)ethyl)piperidin-4 yl)methyl)-1H-1,2,3-triazol-4-yl)-5-fluoro-1H-indole-2-carboxylate] was tested. Which IC50 did it give?
Answer: The IC50 was 1.6 µM.

Question: How did the IC50 turn out when `CC(C)COC(=O)c1[nH]c2ccc(F)cc2c1-c1cn(CC2CCN(CCNS(=O)(=O)c3ccc4ccccc4c3)CC2)nn1` [AB598, Isobutyl 5-fluoro-3-(1-((1-(2-(naphthalene-2-sulfonamido)ethyl)piperidin-4-yl)methyl)-1H-1,2,3-triazol-4-yl)-1H-indole-2-carboxylate] was run?
Answer: The IC50 was 0.51 µM.

Question: `CC(C)COC(=O)c1[nH]c2ccc(Cl)cc2c1-c1cn(CC2CCN(CCNS(=O)(=O)c3ccc4ccccc4c3)CC2)nn1` [AB599, Isobutyl 5-chloro-3-(1-((1-(2-(naphthalene-2-sulfonamido)ethyl)piperidin-4-yl)methyl)-1H-1,2,3-triazol-4-yl)-1H-indole-2-carboxylate] was tested. Which IC50 did it give?
Answer: The IC50 was 3.2 µM.

Question: Which IC50 does the source give for `CC(C)COC(=O)c1[nH]c2ccc(F)cc2c1-c1cn(CC2CCN(CCNS(=O)(=O)c3ccc(C(F)(F)F)cc3)CC2)nn1` [AB600, Isobutyl 5-fluoro-3-(1-((1-(2-((4-(trifluoromethyl)phenyl)sulfonamido)ethyl)piperidin-4-yl)methyl)-1H-1,2,3-triazol-4-yl)-1H-indole-2-carboxylate] here?
Answer: Its IC50 is 0.35 µM.

Question: `CC(C)COC(=O)c1[nH]c2ccc(Cl)cc2c1-c1cn(CC2CCN(CCNS(=O)(=O)c3ccc(C(F)(F)F)cc3)CC2)nn1` [AB601, Isobutyl 5-chloro-3-(1-((1-(2-((4-(trifluoromethyl)phenyl)sulfonamido)ethyl)piperidin-4-yl)methyl)-1H-1,2,3-triazol-4-yl)-1H-indole-2-carboxylate] was tested. Which IC50 did it give?
Answer: The IC50 was 1.4 µM.

same assay, conditions: inhibition of CK2 activity; ATP 10 μM

Question: Which IC50 does the source give for `O=C(O)c1[nH]c2ccc(Cl)cc2c1-c1cn(CC2CCN(CCNS(=O)(=O)c3ccc(Cl)cc3)CC2)nn1` [AB201, 5-Chloro-3-(1-((1-(2-((4-chlorophenyl)sulfonamido)ethyl)piperidin-4-yl)methyl)-1H-1,2,3-triazol-4-yl)-1H-indole-2-carboxylic acid] here?
Answer: The IC50 was 10.1 µM.

Question: How did the IC50 turn out when `O=C(O)c1[nH]c2cc(Cl)ccc2c1-c1cn(CC2CCN(CCNS(=O)(=O)c3ccc(Cl)cc3)CC2)nn1` [AB202, 6-Chloro-3-(1-((1-(2-((4-chlorophenyl)sulfonamido)ethyl)piperidin-4-yl)methyl)-1H-1,2,3-triazol-4-yl)-1H-indole-2-carboxylic acid] was run?
Answer: Its IC50 is 12.1 µM.
